Measurements taken from patent US4345938A, “Herbicidal 2-haloacetanilides” (Monsanto Company, priority 1980, dated 1982).
Like-named read-outs stand apart in the source and are kept apart here.

Key:
Type in all cases: in vivo
Sagittaria trifolia [1] = assay: Greenhouse transplant rice test, ST
Source text: (§1) The test procedure used in this greenhouse test is as follows: Ray silt loam top soil containing about 0.05% by weight of krillium and sifted through a […] screen is fumigated about 5-10 days prior to use. Pots are then filled with said Ray silt loam soil to a level to allow for a 1 in. (2.54 cm) flooding depth. Rice plants (Bluebelle) of 2 to 3 weeks age are transplanted to the pots and bulbs or seeds of the test weeds also planted in the pots. The pots are then flooded and the test chemical applied to the surface of the flood water. The flood water is reduced to allow for germination of the Echinochloa crus-galli (barnyardgrass) seed and subsequently reflooded and maintained in that condition. Observations of percent inhibition using a scale of 0-100% are made about 3 weeks after transplant (WAT).
(§2) The test data in Table III for all compounds was obtained under identical test conditions. The weeds used in the tests herein have the following abbreviations in the tables: Echinochloa crus-galli (EC), Monochloria vaginalis (MV), Cyperus Serotinus (CS), Eleocharis Kuroguwai (EK) and Sagittaria trifolia (ST).

Monochoria vaginalis [2] = assay: Field transplant rice test, applied 0 DAT, MV; conditions: Pontederia vaginalis, 0 h, read-out: Percent Inhibition, MV; for inhibition at 375 g/ha: 0.375 Kg/Ha; for inhibition at 750 g/ha: 0.75 Kg/Ha; for inhibition at 1500 g/ha: 1.5 Kg/Ha; for inhibition at 3000 g/ha: 3.0 Kg/Ha
Procedure: as §2
(§3) In further comparative tests, a preferred compound of this invention (Example 1) was tested in the field with prior art Compounds A-D. These tests were conducted under conditions reflecting herbicide application times generally favorable to all herbicides in the test. The timing of application of herbicides to transplant rice is very important, whether, as in some instances, prior to transplanting the rice; in other instances, at the time of transplanting or else after transplanting. Application times are conventionally referred to as "days before transplant" (DBT) or "days after transplant" ("DAT"). The field test data in Table IV was obtained from a test in which the herbicides were applied at the time of transplant, i.e., "0 DAT", with observations being made weekly up to six weeks after transplant ("WAT") beginning at two weeks after transplant; for illustrative and representative purposes, only the early, middle and late period observations, i.e., 2 WAT, 4 WAT and 6 WAT, are shown in Table IV. The data in Table IV is for rates of application common to all herbicides in the test, i.e., from 3.0 kg/ha (2.67 lb/A) down to 0.375 kg/ha (0.34 lb/A). All herbicides were applied at their actual or expected use rates, i.e., as granules containing 2.5% by weight herbicide for the compound of Example 1, Compounds B, C and D and 5.0% by weight for Compound A.

Monochoria vaginalis [3] = assay: Greenhouse transplant rice test, MV; conditions: Pontederia vaginalis, about 3 WAT, read-out: Percent Inhibition, MV
Source text: as §1, §2

Quackgrass = assay: Pre-emergent herbicidal test, Quackgrass; conditions: Table I; note: ranges in brackets are in %
Source text: (§4) A good grade of top soil is placed in aluminum pans and compacted to a depth of three-eights to one-half inch from the top of the pan. On the top of the soil is placed a number of seeds or vegetative propagules of various plant species. The soil required to level fill the pans after seeding or adding vegetative propagules is weighted into a pan. The soil and a known amount of the active ingredient applied in a solvent or as a wettable powder suspension are thoroughly mixed, and used to cover the prepared pans. After treatment, the pans are moved into a greenhouse bench where they are watered by subirrigation as needed to give adequate moisture for germination and growth.
(§5) Approximately 2 weeks after seeding and treating, the plants were observed and the results recorded. The herbicidal rating was obtained by means of a fixed scale based on the percent injury of each plant species. The ratings are defined as follows: […]

Morningglory = assay: Pre-emergent herbicidal test, Morningglory; note: ranges in brackets are in %
Source text: as §4, §5

Yellow Nutsedge = assay: Pre-emergent herbicidal test, Yellow Nutsedge; conditions: Table I; note: ranges in brackets are in %
Source text: as §4, §5

Sugarbeet = assay: Pre-emergent herbicidal test, Sugarbeet; conditions: Table II; note: ranges in brackets are in %
Source text: as §4, §5
(§6) The compounds were further tested by utilizing the above procedure on the following plant species: […]

Johnsongrass = assay: Pre-emergent herbicidal test, Johnsongrass; conditions: Table I; note: ranges in brackets are in %
Source text: as §4, §5

Soybean = assay: Pre-emergent herbicidal test, Soybean; conditions: Table II; note: ranges in brackets are in %
Source text: as §4, §5, §6

Sagittaria trifolia [4] = assay: Field transplant rice test, applied 9 DAT, ST; conditions: 216 h, read-out: Percent Inhibition, ST; for inhibition at 375 g/ha: 0.375 Kg/Ha; for inhibition at 750 g/ha: 0.75 Kg/Ha; for inhibition at 1500 g/ha: 1.5 Kg/Ha; for inhibition at 3000 g/ha: 3.0 Kg/Ha
Procedure: as §2, §3
In Table V are presented field data showing the relative performance of the compound of Example 1 and Compounds A-D applied 9 DAT, with observations being made weekly from 3 WAT to 7 WAT; again, for illustrative and representative purposes, only the early, middle and late period observations are reported in Table V, the herbicide rates and concentrations of active ingredients the same as is shown in Table IV.

CCCCOc1cccc(CC)c1N(C)C(=O)CCl [Example 1, N-methyl-2'-n-butoxy-6'-ethyl-2-chloroacetanilide]
selective control of ST in rice (Sagittaria trifolia [1]; 0.56 kg/ha): positive selective control
inhibition at 280 g/ha (Sagittaria trifolia [1]; Sagittaria trifolia, 0.28 Kg/Ha, about 3 WAT, read-out: Percent Inhibition, ST): 75%
inhibition at 560 g/ha (Sagittaria trifolia [1]; Sagittaria trifolia, 0.56 Kg/Ha, about 3 WAT, read-out: Percent Inhibition, ST): 85%
inhibition at 1120 g/ha (Sagittaria trifolia [1]; Sagittaria trifolia, 1.12 Kg/Ha, about 3 WAT, read-out: Percent Inhibition, ST): 85%
inhibition at 2240 g/ha (Sagittaria trifolia [1]; Sagittaria trifolia, 2.24 Kg/Ha, about 3 WAT, read-out: Percent Inhibition, ST): 90%
inhibition at 375 g/ha (Monochoria vaginalis [2]; 2 WAT): 98%
inhibition at 375 g/ha (Monochoria vaginalis [2]; 4 WAT): 100%
inhibition at 375 g/ha (Monochoria vaginalis [2]; 6 WAT): 93%
inhibition at 750 g/ha (Monochoria vaginalis [2]; 2 WAT): 100%
inhibition at 750 g/ha (Monochoria vaginalis [2]; 4 WAT): 99%
inhibition at 750 g/ha (Monochoria vaginalis [2]; 6 WAT): 97%
inhibition at 1500 g/ha (Monochoria vaginalis [2]; 2 WAT): 100%
inhibition at 1500 g/ha (Monochoria vaginalis [2]; 4 WAT): 100%
inhibition at 1500 g/ha (Monochoria vaginalis [2]; 6 WAT): 100%
inhibition at 3000 g/ha (Monochoria vaginalis [2]; 2 WAT): 100%
inhibition at 3000 g/ha (Monochoria vaginalis [2]; 4 WAT): 100%
inhibition at 3000 g/ha (Monochoria vaginalis [2]; 6 WAT): 100%
inhibition at 280 g/ha (Monochoria vaginalis [3]; 0.28 Kg/Ha): 100%
inhibition at 560 g/ha (Monochoria vaginalis [3]; 0.56 Kg/Ha): 100%
inhibition at 1120 g/ha (Monochoria vaginalis [3]; 1.12 Kg/Ha): 100%
inhibition at 2240 g/ha (Monochoria vaginalis [3]; 2.24 Kg/Ha): 100%
Rating, Quackgrass (Quackgrass; 5.6 kg/h): 3 (75-100)
Rating, Quackgrass (Quackgrass; 11.2 kg/h): 3 (75-100)
Rating, Morningglory (Morningglory; Table I, 5.6 kg/h): 2 (50-74)
Rating, Morningglory (Morningglory; Table I, 11.2 kg/h): 1 (25-49)
Rating, Morningglory (Morningglory; Table II, 0.006 kg/h): 0 (0-24)
Rating, Morningglory (Morningglory; Table II, 0.06 kg/h): 0 (0-24)
Rating, Morningglory (Morningglory; Table II, 0.28 kg/h): 0 (0-24)
Rating, Morningglory (Morningglory; Table II, 1.12 kg/h): 2 (50-74)
Rating, Morningglory (Morningglory; Table II, 5.6 kg/h): 3 (75-100)
Rating, Yellow Nutsedge (Yellow Nutsedge; 5.6 kg/h): 3 (75-100)
Rating, Yellow Nutsedge (Yellow Nutsedge; 11.2 kg/h): 3 (75-100)
Rating, Sugarbeet (Sugarbeet; 0.006 kg/h): 0 (0-24)
Rating, Sugarbeet (Sugarbeet; 0.01 kg/h): 0 (0-24)
Rating, Sugarbeet (Sugarbeet; 0.06 kg/h): 0 (0-24)
Rating, Sugarbeet (Sugarbeet; 0.28 kg/h): 1 (25-49)
Rating, Sugarbeet (Sugarbeet; 1.12 kg/h): 2 (50-74)
Rating, Sugarbeet (Sugarbeet; 5.6 kg/h): 3 (75-100)
Rating, Johnsongrass (Johnsongrass; 5.6 kg/h): 3 (75-100)
Rating, Johnsongrass (Johnsongrass; 11.2 kg/h): 3 (75-100)
Rating, Soybean (Soybean; 0.006 kg/h): 0 (0-24)
Rating, Soybean (Soybean; 0.01 kg/h): 0 (0-24)
Rating, Soybean (Soybean; 0.06 kg/h): 0 (0-24)
Rating, Soybean (Soybean; 0.28 kg/h): 0 (0-24)
Rating, Soybean (Soybean; 1.12 kg/h): 0 (0-24)
Rating, Soybean (Soybean; 5.6 kg/h): 1 (25-49)
inhibition at 375 g/ha (Sagittaria trifolia [4]; 3 WAT): 50%
inhibition at 375 g/ha (Sagittaria trifolia [4]; 5 WAT): 23%
inhibition at 375 g/ha (Sagittaria trifolia [4]; 7 WAT): 18%
inhibition at 750 g/ha (Sagittaria trifolia [4]; 3 WAT): 43%
inhibition at 750 g/ha (Sagittaria trifolia [4]; 5 WAT): 33%
inhibition at 750 g/ha (Sagittaria trifolia [4]; 7 WAT): 13%
inhibition at 1500 g/ha (Sagittaria trifolia [4]; 3 WAT): 40%
inhibition at 1500 g/ha (Sagittaria trifolia [4]; 5 WAT): 13%
inhibition at 1500 g/ha (Sagittaria trifolia [4]; 7 WAT): 7%
inhibition at 3000 g/ha (Sagittaria trifolia [4]; 3 WAT): 72%
inhibition at 3000 g/ha (Sagittaria trifolia [4]; 5 WAT): 43%
inhibition at 3000 g/ha (Sagittaria trifolia [4]; 7 WAT): 38%
